Data: PMC12210654, “Palazestrant, a novel oral Complete Estrogen Receptor Antagonist (CERAN) and Selective Estrogen Receptor Degrader (SERD), in patients with ER+/HER2− advanced or metastatic breast cancer: phase 1/2 study results” (Breast Cancer Research : BCR, 2025)
Several values for one entry are separate records, joined by “and”; a condition that tells them apart may be missing. Equal entries are not always repeated. Entries after “also recorded” stand apart in the source; their conditions may differ.

Tests used:
ER [1] = test system: ER; parameters: method as in ref 22 = [22]; 22. Hamilton E, Meisel J, Alemany C, Borges V, Lin NU, Wesolowski R, et al. Preliminary phase 1/2 results from OP-1250-001, a study of OP-1250, an oral CERAN/SERD, in patients with advanced and/or met; conditions: based on estradiol-supplemented preclinical models; cited from earlier work
[2] = Plasma pharmacokinetics, single and multiple dose, noncompartmental; assay type: in vivo, human; conditions: for AUC(0-t): steady-state geometric mean AUC0–24
Method: (§1) All DLT analyses (phase 1a) were performed in patients enrolled in the study during cycle 1 and who either received 75% of the planned palazestrant doses or experienced a DLT during cycle 1. All PK analyses were performed in patients who received at least 1 dose of palazestrant and had adequate postbaseline PK samples for characterization of PK parameters. All safety analyses were performed and PFS assessed in patients who received at least 1 dose of palazestrant. Clinical response (CR or PR) was assessed in patients who received at least 1 cycle of palazestrant, had measurable disease at baseline, and had at least 1 postbaseline tumor assessment. CBR was assessed in patients who received at least 1 cycle of palazestrant, had at least 1 postbaseline tumor assessment, and started their first dose at least 24 weeks before data cutoff. Patients who discontinued study treatment without radiographic progression within 24 weeks from the first dose were not included in the CBR analysis. PK parameters were estimated using conventional noncompartmental methods. For CBR, estimates were accompanied by 2-sided 95% confidence intervals (95% CIs). For PFS, Kaplan–Meier analyses were used to determine medians, event-free rates, and 95% CIs. For all other outcomes, categorical data were analyzed using frequencies and percentages, and continuous data were analyzed using means (standard deviation) or medians (range), as appropriate.
Fig. 3 Steady-State Plasma Concentration–Time Profiles for Palazestrant (30 to 300 mg QD; Phase 1a/1b/2 data). Palazestrant was administered once daily at the indicated dose. Plasma samples were collected on cycle 2, day 1, at the indicated timepoints following administration to determine plasma drug concentration. Data presented are arithmetic mean and standard deviation; the heavy dashed black line represents the target (efficacious) exposure based on estradiol-supplemented preclinical models (Cmin: 226 ng/mL). Cmin, minimum plasma concentration; QD, once daily

ER [3] = test system: ER; parameters: method as in PMID 38102750; conditions: cited from earlier work
[4] = Dose escalation (phase 1a): dose-limiting toxicity, MTD, RP2D; assay type: in vivo; conditions: once-daily oral doses of 30 to 300 mg/day
Method: Phase 1 of the study comprised a dose-escalation phase (1a) to identify the MTD using a rolling 6 patient dose-escalation design with 7 dose levels. Two doses of palazestrant (60 mg/day and 120 mg/day) were selected for the dose-expansion phase (1b) to further characterize the safety, PK, and preliminary antitumor activity of treatment and to establish the RP2D. Phase 2 further explored the safety and antitumor activity of palazestrant at the RP2D (120 mg/day) in patients with measurable disease (primary cohort), nonmeasurable evaluable disease (exploratory cohort), and central nervous system (CNS) metastases (exploratory cohort). […]
All DLT analyses (phase 1a) were performed in patients enrolled in the study during cycle 1 and who either received 75% of the planned palazestrant doses or experienced a DLT during cycle 1. […] All safety analyses were performed and PFS assessed in patients who received at least 1 dose of palazestrant. Clinical response (CR or PR) was assessed in patients who received at least 1 cycle of palazestrant, had measurable disease at baseline, and had at least 1 postbaseline tumor assessment. CBR was assessed in patients who received at least 1 cycle of palazestrant, had at least 1 postbaseline tumor assessment, and started their first dose at least 24 weeks before data cutoff. […]

[5] = test system: ESR1 wild-type and mutated human breast cancers; conditions: cited from earlier work
[6] = test system: ER+/HER2− advanced or metastatic breast cancer; test: Antitumor activity: RECIST v1.1 response, CBR, PFS, duration of treatment; assay type: in vivo, human
Description: Key efficacy end points included assessment of clinical response according to RECIST v1.1; the clinical benefit rate (CBR), defined as the proportion of patients who achieved a complete response (CR), achieved a partial response (PR), or had stable disease (SD) for at least 24 weeks; and progression-free survival (PFS), defined as the time from the date of the first dose to disease progression or death. Biomarker assessments included changes from baseline in circulating tumor DNA (e.g., ESR1 variants) and tumor tissue biomarkers (ERα and Ki67).
as §1

[7] = 60 mg/day, measurable disease (n = 26)
[8] = 120 mg/day, 66 patients with measurable disease
[9] = 120 mg/day, all patients (n = 86)
[10] = 120 mg/day, patients with ESR1 mutation at baseline (n = 36)

For `CCCN1CC(Oc2ccc([C@@H]3c4[nH]c5ccccc5c4C[C@@H](C)N3CC(C)(C)F)cc2)C1` [palazestrant, Palazestrant], the “predicted efficacy threshold, target (efficacious) exposure, Cmin” value (ER [1]) is given as 226 ng/mL, the “steady-state plasma concentrations versus predicted efficacy threshold (226 ng/mL)” value ([2]; doses of ≥ 60 mg/day (60 and 120 mg/day)) is given as “reached the predicted efficacy threshold; also recorded: above the predicted efficacy threshold” and the AUC(0-t) ([2]; human, in vivo, 60 mg) is given as 4030 ng·h/mL. For the same compound, the AUC(0-t) ([2]; human, in vivo, 120 mg) was 9210 ng·h/mL, the half-life ([2]; human, in vivo, 120 mg, terminal half-life) was 192 h and the bioavailability ([2]; human, in vivo, po) was “readily bioavailable”. For the same compound, the distribution ([2]; in vivo) was “extensive tissue distribution”, the “dose proportionality of exposure” value ([2]; in vivo) was “dose-proportional exposure” and the elimination ([2]; in vivo) was “biphasic elimination”. For the same compound, the “potency in vitro relative to imlunestrant” value (ER [3]) was “greater potency in vitro”, the “maximum tolerated dose (MTD)” value [4] was “not reached; also recorded: no MTD was identified” and the “tumor shrinkage compared with fulvestrant and tamoxifen” value ([5]; preclinical xenograft models, ESR1 wild-type and mutated) was “greater tumor shrinkage”. The “preclinical antitumor activity relative to fulvestrant and elacestrant” value ([5]; regardless of ESR1 mutation status) was “superior”, the “best response observed in dose cohorts” value ([6]; 60 mg/day and 120 mg/day dose cohorts) was “Confirmed partial responses; also recorded: confirmed PR” and the “clinical benefit rate (CBR)” value ([6]; 60 mg/day, 13 patients with cancers with ESR1 mutations) was 23.1%. The “clinical benefit rate (CBR)” value ([6]; 60 mg/day, all evaluable patients (n = 26)) was 19% and 19.2%, the “confirmed PRs” value [6, 7] was 7.7% and the “total PRs” value [6, 7] was 11.5%. The “unconfirmed PR” value [6, 7] was 3.8%, the “patients remaining on treatment for ≥ 1 year” value ([6]; 120 mg/day (n = 86)) was 7.0% and the “patients with a > 30% reduction in tumor size” value ([6]; 120 mg/day, 8/64) was 12.5%. For the same compound, the “patients with a reduction in tumor size (percentage change less than zero)” value ([6]; 120 mg/day, 25/64) was 39.1%, the “patients remaining on treatment for ≥ 6 months” value ([6]; 120 mg/day, 32/86) was 37.2% and the “confirmed PRs” value [6, 8] was 4.5%. For the same compound, the “confirmed PRs including one cPR after the data cutoff date” value [6, 8] was 6.0%, the “total PRs” value [6, 8] was 7.6% and the “unconfirmed PRs” value [6, 8] was 3.0%. For the same compound, the “clinical benefit rate (CBR)” value ([6]; 120 mg/day, all evaluable patients (n = 70)) was 46% and 45.7%, the “6-month PFS rate” value [6, 9] was 39% and the “median progression-free survival (95% CI)” value [6, 9] was 4.8 months. For the same compound, the “CBR in patients who had a reduction in ESR1 mutations” value ([6]; 120 mg/day, ctDNA available, 8/11) was 73%, the “CBR in patients who did not have a reduction in ESR1 mutations” value ([6]; 120 mg/day, ctDNA available, 8/32) was 25% and the “6-month PFS rate” value [6, 10] was 47%. The “median progression-free survival (95% CI)” value [6, 10] was 5.6 months and the “clinical benefit rate (CBR)” value ([6]; 120 mg/day, patients with cancers with ESR1 mutations (n = 29)) was 58.6%.
